Measurements as given in patent US20070027080A1, “Method for treatment of vitiligo” (priority 2005, published 2007).

How the values were obtained:
[1] = test system: vitiligo patches of volunteers; assay: Clinical trial: repigmentation of vitiligo patches, OMP of beta methasone with or without local application of the peptide; assay type: in vivo, human
Description: (§1) That this happens was shown in a clinical trial on human volunteers. The above twin objectives were accomplished. FIG. 2a describes two vitiligo patches at the start of treatment of oral steroids, while 2b describes the same patches at the end of 3 months of treatment with oral steroids while at the same time bFGF peptide(s) lotion was applied locally once a day on the lower vitiligo patch for the duration of intake of oral steroids. […] The arrest of the fast spread of the disease was accomplished to the same extent of 88% at the end of 6 months of treatment with oral steroids and the result was not altered by the local application of bFGF peptide(s) lotion (See table 3 for more details)
At the end of 3 months of combinatorial treatment with steroids and local application of bFGF peptide(s) lotion more than 3 fold more patients got pigmented to a marked extent than with steroid alone (See Table 4 for more details). The percentage of volunteers who had moderate and marked rate of repigmentation with combinatorial therapy at the end of three months of treatment is twice than with the steroid therapy alone.

[2] = test system: fast spreading vitiligo; assay: Clinical trial: disease activity (arrest of spread) of fast spreading vitiligo, OMP of beta methasone with or without the peptide; assay type: in vivo, human
Description: as §1

C[C@H]1C[C@H]2[C@@H]3CCC4=CC(=O)C=C[C@]4(C)[C@@]3(F)[C@@H](O)C[C@]2(C)[C@@]1(O)C(=O)CO [OMP Alone, beta methasone]
Marked repigmentation, % of volunteers ([1]; At 3 months): 12.5% | Marked repigmentation, number of volunteers ([1]; At 3 months): 2 | Minimal repigmentation, % of volunteers ([1]; At 3 months): 68.75% | Minimal repigmentation, number of volunteers ([1]; At 3 months): 11 | Moderate repigmentation, % of volunteers ([1]; At 3 months): 18.75% | Moderate repigmentation, number of volunteers ([1]; At 3 months): 3 | Marked repigmentation, % of volunteers ([1]; At 6 months): 25% | Marked repigmentation, number of volunteers ([1]; At 6 months): 4 | Minimal repigmentation, % of volunteers ([1]; At 6 months): 50% | Minimal repigmentation, number of volunteers ([1]; At 6 months): 8 | Moderate repigmentation, % of volunteers ([1]; At 6 months): 25% | Moderate repigmentation, number of volunteers ([1]; At 6 months): 4 | No. of patients where the disease was arrested with time ([2]; At 3 months): 12 | Percentage of patients where the disease was arrested ([2]; At 3 months): 75% | No. of patients where the disease was arrested with time ([2]; At 6 months): 14 | Percentage of patients where the disease was arrested ([2]; At 6 months): 87.50% | Percentage of patients where the disease was arrested ([2]; At 6 months, listed as oral steroids): 88%
